From PubChem BioAssay (NCI)
Values joined by “and” are separate entries in the source; they are usually repeats but may differ in a detail not shown here. Equal values may be shown once.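 1) Cells in 96-well plates. 2) Compound, 48 h, 5 concentrations. 3) Linear interpolation between surrounding doses. 4) Unreached endpoint = highest concentration. The concentration for full growth arrest is given as TGI.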

Key:
Assay in all cases: NCI tumour cell line growth inhibition, 48 h
MCF7 breast = system: MCF7 breast
MDA-N = system: MDA-N
A549 NSCLC = system: A549 NSCLC
LOX IMVI melanoma = system: LOX IMVI melanoma
HS 578T breast = system: HS 578T breast
UO-31 renal = system: UO-31 renal
HL-60(TB) leukemia = system: HL-60(TB) leukemia
SW-620 colon = system: SW-620 colon
MOLT-4 leukemia = system: MOLT-4 leukemia
HCT-116 colon = system: HCT-116 colon
NCI-H460 lung = system: NCI-H460 lung
SN12C renal = system: SN12C renal
NCI-H23 lung = system: NCI-H23 lung
MDA-MB-435 = system: MDA-MB-435
SNB-75 CNS = system: SNB-75 CNS
NCI/ADR-RES ovarian = system: NCI/ADR-RES ovarian
A498 renal = system: A498 renal
TK-10 renal = system: TK-10 renal
RPMI-8226 leukemia = system: RPMI-8226 leukemia

SMILES | TGI (MCF7 breast) | TGI (MDA-N) | TGI (A549 NSCLC) | TGI (LOX IMVI melanoma) | TGI (HS 578T breast) | TGI (UO-31 renal) | TGI (HL-60(TB) leukemia) | TGI (SW-620 colon) | TGI (MOLT-4 leukemia) | TGI (HCT-116 colon) | TGI (NCI-H460 lung) | TGI (SN12C renal) | TGI (NCI-H23 lung) | TGI (MDA-MB-435) | TGI (SNB-75 CNS) | TGI (NCI/ADR-RES ovarian) | TGI (A498 renal) | TGI (TK-10 renal) | TGI (RPMI-8226 leukemia)
CC(=O)OC1OC(C2c3cccc(O)c3C(=O)c3c(O)cc(CO)cc32)C(O)C(O)C1O (centres undefined) | 35.3 µM and > 100 µM | 13.5 µM and 8.28 µM | 21.2 µM and 29.5 µM | 9.75 µM and 9.49 µM | 7.38 µM and 7.12 µM | 22.5 µM and 21.3 µM | 17.3 µM and 12.7 µM | 10.8 µM and 19.3 µM | 52.2 µM and 66.5 µM | 11.2 µM and 10.8 µM | 13.4 µM and 12.4 µM | 24.3 µM and 17.9 µM | 11.3 µM and 13 µM | 11.6 µM and 14.3 µM | 23.5 µM and 16.3 µM | 44.7 µM and 28.1 µM | 26.4 µM | 19.4 µM and 22.4 µM | –
O=C1C2CCCCC2C(=O)N1n1c(Cc2ccccc2)n[nH]c1=O (centres undefined) | > 100 µM | > 100 µM | > 100 µM | > 100 µM | > 100 µM | > 100 µM | – | > 100 µM | > 100 µM | > 100 µM | > 100 µM | > 100 µM | > 100 µM | > 100 µM | > 100 µM | > 100 µM | > 100 µM | > 100 µM | > 100 µM
O=C(O)c1ccc2[nH]c(=O)oc2c1 | > 100 µM | > 100 µM | – | > 100 µM | > 100 µM | – | > 100 µM | > 100 µM | > 100 µM | > 100 µM | > 100 µM | > 100 µM | > 100 µM | > 100 µM | > 100 µM | > 100 µM | > 100 µM | > 100 µM | > 100 µM
CC(CCCCNC(=O)OC(C)(C)C)NC(=O)NC(C)CCCCNC(=O)OC(C)(C)C (centres undefined) | > 100 µM | > 100 µM | > 100 µM | > 100 µM | > 100 µM | > 100 µM | > 100 µM | > 100 µM | > 100 µM | > 100 µM | > 100 µM | > 100 µM | > 100 µM | > 100 µM | > 100 µM | > 100 µM | > 100 µM | > 100 µM | –
CCC12CN(C(=O)OC)C3C(Br)C1CCC(=O)C32 (centres undefined) | > 100 µM | > 100 µM | > 100 µM | > 100 µM | > 100 µM | > 100 µM | > 100 µM | > 100 µM | > 100 µM | – | > 100 µM | – | > 100 µM | > 100 µM | > 100 µM | > 100 µM | > 100 µM | > 100 µM | > 100 µM
CNc1cc(Cl)ccc1C(=O)N1CCC[C@H]1CO | > 100 µM | > 100 µM | > 100 µM | > 100 µM | > 100 µM | > 100 µM | > 100 µM | > 100 µM | > 100 µM | > 100 µM | – | > 100 µM | > 100 µM | > 100 µM | > 100 µM | > 100 µM | > 100 µM | > 100 µM | –
CCOC(=O)/C=C/C1=C(Br)[C@@]2(C)CC[C@@H]3c4ccc(O)cc4CC[C@H]3[C@@H]2C1 | 26.7 µM | 26.7 µM | 30.5 µM | 19.6 µM | 28.9 µM | 30.4 µM | 34 µM | 37.3 µM | 43.2 µM | 26.6 µM | 28.4 µM | 26.5 µM | 26.6 µM | 28.8 µM | – | 27.9 µM | 32 µM | 31.7 µM | 6.6 µM
O=C(Cn1c2c(c3ccccc31)CCCC2)N1CCOCC1 | > 100 µM | > 100 µM | > 100 µM | > 100 µM | > 100 µM | > 100 µM | > 100 µM | > 100 µM | > 100 µM | > 100 µM | > 100 µM | > 100 µM | > 100 µM | > 100 µM | – | > 100 µM | > 100 µM | > 100 µM | > 100 µM
O=C(O)c1ccc(C2=Nc3cccc4cccc(c34)N2)cc1 | > 100 µM | > 100 µM | > 100 µM | > 100 µM | > 100 µM | > 100 µM | > 100 µM | > 100 µM | > 100 µM | > 100 µM | > 100 µM | > 100 µM | > 100 µM | > 100 µM | > 100 µM | > 100 µM | – | > 100 µM | > 100 µM
COc1ccc(-c2n[nH]c3nc4ccccc4n3c2=O)cc1 | > 100 µM | > 100 µM | > 100 µM | > 100 µM | > 100 µM | > 100 µM | > 100 µM | > 100 µM | > 100 µM | > 100 µM | > 100 µM | > 100 µM | > 100 µM | > 100 µM | > 100 µM | > 100 µM | > 100 µM | > 100 µM | –
CC(O)/C=C/C1OC(=O)CC1Nc1ccc(C=O)cc1 (centres undefined) | > 100 µM | > 100 µM | > 100 µM | > 100 µM | > 100 µM | > 100 µM | – | > 100 µM | 77.5 µM | > 100 µM | > 100 µM | > 100 µM | > 100 µM | > 100 µM | > 100 µM | > 100 µM | > 100 µM | > 100 µM | 90.9 µM
COC(OC)[C@@H]1OC[C@H](n2ccc(=O)[nH]c2=O)[C@H]1O | > 100 µM | > 100 µM | > 100 µM | > 100 µM | > 100 µM | > 100 µM | – | > 100 µM | > 100 µM | > 100 µM | > 100 µM | > 100 µM | > 100 µM | > 100 µM | > 100 µM | > 100 µM | > 100 µM | > 100 µM | > 100 µM
O=C(c1ccccc1)N1CCC(Nc2cccnc2)O1 (centres undefined) | > 100 µM | > 100 µM | > 100 µM | – | > 100 µM | > 100 µM | > 100 µM | > 100 µM | > 100 µM | > 100 µM | > 100 µM | > 100 µM | > 100 µM | > 100 µM | – | > 100 µM | > 100 µM | > 100 µM | –
